According to ChEMBL document CHEMBL3872249, “Computer design, synthesis, and bioactivity analyses of drugs like fingolimod used in the treatment of multiple sclerosis” (Bioorg Med Chem, 2017):

Legend:
Assay type in all cases: functional
SK-N-SH [1] = assay: Effect on AGTR2 mRNA expression in human SK-N-SH cells at EC10 by qPCR method relative to beta-actin
SK-N-SH [2] = assay: Effect on PIK3CG mRNA expression in human SK-N-SH cells at EC10 by qPCR method relative to beta-actin
SK-N-SH [3] = assay: Effect on JUN mRNA expression in human SK-N-SH cells at EC10 by qPCR method relative to beta-actin
SH-SY5Y [4] = assay: Effect on GRM1 mRNA expression in human SH-SY5Y cells at EC10 by qPCR method relative to beta-actin
SH-SY5Y [5] = assay: Effect on IL1B mRNA expression in human SH-SY5Y cells at EC10 by qPCR method relative to beta-actin
SK-N-SH [6] = assay: Effect on GRM1 mRNA expression in human SK-N-SH cells at EC10 by qPCR method relative to beta-actin
SK-N-SH [7] = assay: Effect on OPRD1 mRNA expression in human SK-N-SH cells at EC10 by qPCR method relative to beta-actin
SK-N-SH [8] = assay: Effect on BCL2 mRNA expression in human SK-N-SH cells at EC10 by qPCR method relative to beta-actin
SH-SY5Y [9] = assay: Effect on COL1A1 mRNA expression in human SH-SY5Y cells at EC10 by qPCR method relative to beta-actin
SH-SY5Y [10] = assay: Effect on MYC mRNA expression in human SH-SY5Y cells at EC10 by qPCR method relative to beta-actin
SK-N-SH [11] = assay: Effect on VEGFA mRNA expression in human SK-N-SH cells at EC10 by qPCR method relative to beta-actin
SK-N-SH [12] = assay: Effect on IFNG mRNA expression in human SK-N-SH cells at EC10 by qPCR method relative to beta-actin
U-118-MG [13] = assay: Effect on TSHR mRNA expression in human U118MG cells at EC10 by qPCR method relative to beta-actin
SK-N-SH [14] = assay: Effect on NOS2 mRNA expression in human SK-N-SH cells at EC10 by qPCR method relative to beta-actin
SH-SY5Y [15] = assay: Effect on VEGFA mRNA expression in human SH-SY5Y cells at EC10 by qPCR method relative to beta-actin
U-118-MG [16] = assay: Effect on EDNRA mRNA expression in human U118MG cells at EC10 by qPCR method relative to beta-actin
U-118-MG [17] = assay: Effect on CD4 mRNA expression in human U118MG cells at EC10 by qPCR method relative to beta-actin
U-118-MG [18] = assay: Effect on AGTR2 mRNA expression in human U118MG cells at EC10 by qPCR method relative to beta-actin
SK-N-SH [19] = assay: Effect on CYP19A1 mRNA expression in human SK-N-SH cells at EC10 by qPCR method relative to beta-actin
U-118-MG [20] = assay: Effect on CFLAR mRNA expression in human U118MG cells at EC10 by qPCR method relative to beta-actin
U-118-MG [21] = assay: Effect on IL1B mRNA expression in human U118MG cells at EC10 by qPCR method relative to beta-actin
U-118-MG [22] = assay: Effect on MYC mRNA expression in human U118MG cells at EC10 by qPCR method relative to beta-actin
SK-N-SH [23] = assay: Effect on IL1B mRNA expression in human SK-N-SH cells at EC10 by qPCR method relative to beta-actin
SK-N-SH [24] = assay: Effect on CSF1 mRNA expression in human SK-N-SH cells at EC10 by qPCR method relative to beta-actin
U-118-MG [25] = assay: Effect on COL1A1 mRNA expression in human U118MG cells at EC10 by qPCR method relative to beta-actin
U-118-MG [26] = assay: Effect on CRHR1 mRNA expression in human U118MG cells at EC10 by qPCR method relative to beta-actin
U-118-MG [27] = assay: Effect on EPHA1 mRNA expression in human U118MG cells at EC10 by qPCR method relative to beta-actin
SH-SY5Y [28] = assay: Effect on EPHA1 mRNA expression in human SH-SY5Y cells at EC10 by qPCR method relative to beta-actin
U-118-MG [29] = assay: Effect on EDN1 mRNA expression in human U118MG cells at EC10 by qPCR method relative to beta-actin
SH-SY5Y [30] = assay: Effect on S1PR3 mRNA expression in human SH-SY5Y cells at EC10 by qPCR method relative to beta-actin
SH-SY5Y [31] = assay: Effect on ADRB2 mRNA expression in human SH-SY5Y cells at EC10 by qPCR method relative to beta-actin
U-118-MG [32] = assay: Effect on BCL2 mRNA expression in human U118MG cells at EC10 by qPCR method relative to beta-actin
SH-SY5Y [33] = assay: Effect on OPRD1 mRNA expression in human SH-SY5Y cells at EC10 by qPCR method relative to beta-actin
SK-N-SH [34] = assay: Effect on EDNRA mRNA expression in human SK-N-SH cells at EC10 by qPCR method relative to beta-actin
SH-SY5Y [35] = assay: Effect on CFLAR mRNA expression in human SH-SY5Y cells at EC10 by qPCR method relative to beta-actin
SH-SY5Y [36] = assay: Effect on IFNG mRNA expression in human SH-SY5Y cells at EC10 by qPCR method relative to beta-actin
U-118-MG [37] = assay: Effect on CXCL11 mRNA expression in human U118MG cells at EC10 by qPCR method relative to beta-actin
SK-N-SH [38] = assay: Effect on PTGDR mRNA expression in human SK-N-SH cells at EC10 by qPCR method relative to beta-actin
U-118-MG [39] = assay: Effect on CXCL10 mRNA expression in human U118MG cells at EC10 by qPCR method relative to beta-actin
U-118-MG [40] = assay: Effect on CCL3 mRNA expression in human U118MG cells at EC10 by qPCR method relative to beta-actin
U-118-MG [41] = assay: Effect on MAG mRNA expression in human U118MG cells at EC10 by qPCR method relative to beta-actin
U-118-MG [42] = assay: Effect on HLA-DRB1 mRNA expression in human U118MG cells at EC10 by qPCR method relative to beta-actin
SH-SY5Y [43] = assay: Effect on GRM5 mRNA expression in human SH-SY5Y cells at EC10 by qPCR method relative to beta-actin
SK-N-SH [44] = assay: Effect on MAG mRNA expression in human SK-N-SH cells at EC10 by qPCR method relative to beta-actin

Compound: CCCCCCCCn1nnnc1CCC(N)(CO)CO.Cl
- fold change (FC) (SK-N-SH [1]): 9.0827
- fold change (FC) (SK-N-SH [2]): -7.7108
- fold change (FC) (SK-N-SH [3]): -7.2696
- fold change (FC) (SH-SY5Y [4]): -4.806
- fold change (FC) (SH-SY5Y [5]): -6.5966
- fold change (FC) (SK-N-SH [6]): -5.0346
- fold change (FC) (SK-N-SH [7]): 3.2561
- fold change (FC) (SK-N-SH [8]): -7.8184
- fold change (FC) (SH-SY5Y [9]): -4.939
- fold change (FC) (SH-SY5Y [10]): -5.0669
- fold change (FC) (SK-N-SH [11]): -7.9138
- fold change (FC) (SK-N-SH [12]): -3.6601
- fold change (FC) (U-118-MG [13]): 3.1513
- fold change (FC) (SK-N-SH [14]): -5.1582
- fold change (FC) (SH-SY5Y [15]): -6.1896
- fold change (FC) (U-118-MG [16]): 4.4344
- fold change (FC) (U-118-MG [17]): -3.5323
- fold change (FC) (U-118-MG [18]): 4.8726
- fold change (FC) (SK-N-SH [19]): -5.5959
- fold change (FC) (U-118-MG [20]): -2.9826
- fold change (FC) (U-118-MG [21]): -3.0275
- fold change (FC) (U-118-MG [22]): -4.1285
- fold change (FC) (SK-N-SH [23]): -4.7796
- fold change (FC) (SK-N-SH [24]): -3.004
- fold change (FC) (U-118-MG [25]): -5.8779
- fold change (FC) (U-118-MG [26]): 4.2936
- fold change (FC) (U-118-MG [27]): -4.2116
- fold change (FC) (SH-SY5Y [28]): -6.2326
- fold change (FC) (U-118-MG [29]): 5.5464
- fold change (FC) (SH-SY5Y [30]): -2.5755
- fold change (FC) (SH-SY5Y [31]): -4.5291
- fold change (FC) (U-118-MG [32]): -4.6127
- fold change (FC) (SH-SY5Y [33]): 2.8007
- fold change (FC) (SK-N-SH [34]): 7.0402
- fold change (FC) (SH-SY5Y [35]): -3.1434
- fold change (FC) (SH-SY5Y [36]): -2.7247
- fold change (FC) (U-118-MG [37]): -2.9665

Compound: CCCCCCCCc1ccc(CCC(N)(CO)CO)cc1 [FINGOLIMOD]
- fold change (FC) (SK-N-SH [1]): 3.8122
- fold change (FC) (SK-N-SH [2]): -5.7333
- fold change (FC) (SK-N-SH [3]): -2.7499
- fold change (FC) (SH-SY5Y [4]): -20.6061
- fold change (FC) (SH-SY5Y [5]): -4.7158
- fold change (FC) (SK-N-SH [6]): -4.8631
- fold change (FC) (SK-N-SH [7]): 4.9782
- fold change (FC) (SK-N-SH [8]): -2.7547
- fold change (FC) (SH-SY5Y [9]): -5.0806
- fold change (FC) (SH-SY5Y [10]): -4.508
- fold change (FC) (SK-N-SH [11]): -7.7644
- fold change (FC) (SK-N-SH [38]): -4.3981
- fold change (FC) (SK-N-SH [12]): -6.428
- fold change (FC) (U-118-MG [13]): -3.664
- fold change (FC) (SK-N-SH [14]): -5.9976
- fold change (FC) (SH-SY5Y [15]): -4.3696
- fold change (FC) (U-118-MG [16]): 3.242
- fold change (FC) (U-118-MG [18]): 4.8347
- fold change (FC) (SK-N-SH [19]): -7.2069
- fold change (FC) (U-118-MG [20]): -3.53
- fold change (FC) (U-118-MG [21]): -4.3432
- fold change (FC) (U-118-MG [22]): -4.9203
- fold change (FC) (SK-N-SH [23]): -5.3866
- fold change (FC) (U-118-MG [39]): -8.4782
- fold change (FC) (SK-N-SH [24]): -7.7644
- fold change (FC) (U-118-MG [40]): -3.4017
- fold change (FC) (U-118-MG [25]): -5.339
- fold change (FC) (U-118-MG [27]): -3.7679
- fold change (FC) (SH-SY5Y [28]): -6.442
- fold change (FC) (SH-SY5Y [31]): -11.1967
- fold change (FC) (U-118-MG [32]): -4.7035
- fold change (FC) (SH-SY5Y [33]): 5.0193
- fold change (FC) (SK-N-SH [34]): 7.6112
- fold change (FC) (U-118-MG [41]): 4.0174
- fold change (FC) (U-118-MG [42]): -3.4313
- fold change (FC) (SH-SY5Y [35]): -13.7609
- fold change (FC) (SH-SY5Y [43]): -3.3753
- fold change (FC) (SH-SY5Y [36]): -5.1964
- fold change (FC) (SK-N-SH [44]): 3.5508

Compound: CCCCCCCCn1nnnc1-c1ccc(C(O)CC(N)(CO)CO)cc1.Cl (configuration not stated)
- fold change (FC) (U-118-MG [39]): -4.8547
- fold change (FC) (U-118-MG [40]): -3.7241
- fold change (FC) (SH-SY5Y [30]): -3.7208
- fold change (FC) (U-118-MG [41]): 3.7859
- fold change (FC) (U-118-MG [37]): -4.2262
- fold change (FC) (SK-N-SH [44]): 3.9862
